Here are results for 36 compounds from ChEMBL document CHEMBL1155074, “Is quantum mechanics necessary for predicting binding free energy?” (J Med Chem, 2008).

The term Ki denotes a dissociation constant, usually derived from enzyme kinetics or from competition with a known ligand. The IC50 is the concentration at which inhibition is half-maximal.

Square brackets hold non-standard residues; d marks the D form. Peptide text beside a SMILES is read from it. * marks the point of attachment. Phe(4-guanidino) = N=C(N)Nc1ccc(C[C@H](N)C(=O)O)cc1; Phe(4-Me) = Cc1ccc(C[C@H](N)C(=O)O)cc1; Phg = N[C@H](C(=O)O)c1ccccc1; Nle = CCCC[C@H](N)C(=O)O; Cbz = O=C(OCc1ccccc1)*; Bz = O=C(c1ccccc1)*; Bn = c1ccc(C*)cc1

One assay addresses Protease (Human immunodeficiency virus 1, UniProt Q9YQ12). The assay can be described thus: Inhibition of HIV1 protease.
Assay [1] can be described thus: Inhibition of West Nile virus NS3 protease.

Protease, sequence (Q9YQ12 whole entry): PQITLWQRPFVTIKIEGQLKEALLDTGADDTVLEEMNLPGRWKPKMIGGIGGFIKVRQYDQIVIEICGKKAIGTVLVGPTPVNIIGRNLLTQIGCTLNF

With `O=C1N(Cc2ccc3ccccc3c2)[C@H](Cc2ccccc2)[C@H](O)[C@@H](O)[C@@H](Cc2ccccc2)N1Cc1ccc2ccccc2c1`, on Protease, the inhibition constant (Ki) was 0.05 nM.

`CC1(C)S[C@H]([C@H](NC(=O)Cc2ccccc2)C(=O)NCc2ccccc2)N[C@H]1C(=O)N[C@H](Cc1ccccc1)[C@H](O)CC(=O)NCc1nc2ccccc2[nH]1`: the affinity at Protease, expressed as Ki, was 3.2 nM.

Compound `CCCC[C@H](NCc1ccccc1)C(=O)N[C@@H](CCCCN)C(=O)N[C@@H](CCCNC(=N)N)C(=O)N[C@H](C=O)Cc1ccc(C#N)cc1` came in with an IC50 in assay [1] of 62 µM.

Regarding `CC(C)[C@H](NC(=O)N(C)Cc1ccccn1)C(=O)NC(Cc1ccccc1)[C@H](O)[C@H](O)[C@H](Cc1ccccc1)NC(=O)[C@@H](NC(=O)N(C)Cc1ccccn1)C(C)C` (stereo partly specified), the affinity at Protease corresponds to a Ki of 1100 nM.

The compound `N=C(N)NCCC[C@@H](C=O)NC(=O)[C@H](CCCNC(=N)N)NC(=O)[C@H](CCCCN)Nc1cccnc1` returned an IC50 in assay [1] of 1 µM.

At Protease, `COC(=O)[C@@H](NC(=O)[C@@H](NC(=O)[C@H](C)N1CCC([C@H](C)NC(=O)[C@H](C)N)=C[C@@H](Cc2ccccc2)C1)C(C)C)C(C)C` displayed a Ki of 437 nM.

Regarding `CCCC[C@H](NCc1ccccc1)C(=O)N[C@@H](CCCCN)C(=O)N[C@@H](CCCNC(=N)N)C(=O)N[C@H](C=O)Cc1c[nH]c2ccccc12`, the concentration for half-maximal inhibition (IC50) in assay [1] is 10 µM.

Take `CC(=O)N[C@@H](CCCCN)C(=O)N[C@@H](CCCNC(=N)N)C(=O)N[C@H](C=O)CCCNC(=N)N` (Ac-Lys-Arg-Arg-aldehyde): in assay [1], the half-maximal inhibitory concentration (IC50) was 0.5 µM.

As to `CC(=O)N[C@@H](CCCCN)C(=O)N[C@@H](CCCCN)C(=O)N[C@H](C=O)CCCNC(=N)N` (Ac-Lys-Lys-Arg-aldehyde), it took 0.4 µM to reach half-maximal inhibition in assay [1] (IC50).

As for `C[C@H](NC(=O)c1ccccc1)C(=O)N[C@@H](CCCCN)C(=O)N[C@@H](CCCNC(=N)N)C(=O)N[C@H](C=O)CCCNC(=N)N` (Bz-AKRR-aldehyde), half-maximal inhibition in assay [1] (IC50) required 0.7 µM.

As for `N=C(N)NCCC[C@@H](C=O)NC(=O)[C@H](CCCNC(=N)N)NC(=O)c1ccccc1` (Bz-Arg-Arg-aldehyde), the midpoint of inhibition in assay [1], the IC50, lay at 3.9 µM.

With `N=C(N)NCCC[C@H](NC(=O)c1ccccc1)C(=O)N[C@H](C=O)CCCCN` (Bz-Arg-Lys-aldehyde), in assay [1], the concentration for half-maximal inhibition (IC50) stood at 57.5 µM.

`NCCCC[C@H](NC(=O)[C@H](Cc1ccccc1)NC(=O)c1ccccc1)C(=O)N[C@@H](CCCN=C(N)N)C(=O)N[C@H](C=O)CCCN=C(N)N` (Bz-FKRR-aldehyde) registered a half-maximal inhibitory concentration (IC50) in assay [1] of 1.2 µM.

Compound `N=C(N)NCCC[C@@H](C=O)NC(=O)[C@H](CCCCNC(=O)OCc1ccccc1)NC(=O)c1ccccc1` (Bz-Lys(Cbz)-Arg-aldehyde) returned a concentration for half-maximal inhibition (IC50) in assay [1] of 436 µM.

Compound `N=C(N)NCCC[C@@H](C=O)NC(=O)[C@H](CCCNC(=N)N)NC(=O)[C@H](CCCCN)NC(=O)c1ccccc1` (Bz-Lys-Arg-Arg-aldehyde) had a half-maximal inhibitory concentration (IC50) in assay [1] of 1.5 µM.

As to `N=C(N)NCCC[C@H](NC(=O)[C@H](CCCCN)NC(=O)c1ccccc1)C(=O)N[C@H](C=O)Cc1ccccc1` (Bz-Lys-Arg-Phe-aldehyde), the half-inhibitory concentration (IC50) in assay [1] came to 71.1 µM.

In turn, `N=C(N)NCCC[C@H](NC(=O)[C@H](CCCCN)NC(=O)c1ccccc1)C(=O)N[C@H](C=O)Cc1ccc(OCc2ccccc2)cc1` (Bz-Lys-Arg-Tyr(Bn)-aldehyde) had an IC50 in assay [1] of 11.8 µM.

`N=C(N)NCCC[C@H](NC(=O)[C@H](CCCCN)NC(=O)c1ccccc1)C(=O)N[C@H](C=O)Cc1ccc(O)cc1` (Bz-Lys-Arg-Tyr-aldehyde) showed an IC50 in assay [1] of 14.6 µM.

Take `Cc1ccc(C[C@@H](C=O)NC(=O)[C@H](CCCNC(=N)N)NC(=O)[C@H](CCCCN)NC(=O)c2ccccc2)cc1` (Bz-Lys-Arg-[Phe(4-Me)]-aldehyde): the IC50 in assay [1] came to 17.7 µM.

With `N=C(N)NCCC[C@@H](C=O)NC(=O)[C@H](CCCCN)NC(=O)c1ccccc1` (Bz-Lys-Arg-aldehyde), the midpoint of inhibition in assay [1], the IC50, lay at 1.4 µM.

In turn, `N=C(N)NCCC[C@@H](C=O)NC(=O)[C@H](CC(N)=O)NC(=O)[C@H](CCCCN)NC(=O)c1ccccc1` (Bz-Lys-Asn-Arg-aldehyde) displayed a half-maximal inhibitory concentration (IC50) in assay [1] of 71.8 µM.

In turn, `Cc1ccc(C[C@@H](C=O)NC(=O)[C@H](CCCCNC(=O)OCc2ccccc2)NC(=O)[C@H](CCCCN)NC(=O)c2ccccc2)cc1` (Bz-Lys-Lys(Cbz)-[Phe(4-Me)]-aldehyde) showed an IC50 in assay [1] of 43.3 µM.

With `Cc1ccc(C[C@H](NC(=O)[C@H](CCCCN)NC(=O)c2ccccc2)C(=O)N[C@H](C=O)CCCNC(=N)N)cc1` (Bz-Lys-[Phe(4-Me)]-Arg-aldehyde), inhibition in assay [1] was half-maximal at 194 µM (IC50).

In assay [1], `Cc1ccc(C[C@@H](C=O)NC(=O)[C@H](Cc2ccc(OCc3ccccc3)cc2)NC(=O)c2ccccc2)cc1` (Bz-Tyr(Bn)-[Phe(4-Me)]-aldehyde) came in with an IC50 of 12.7 µM.

Take `CCCC[C@H](NC(=O)c1ccccc1)C(=O)N[C@@H](C)C(=O)N[C@@H](CCCNC(=N)N)C(=O)N[C@H](C=O)CCCNC(=N)N` (Bz-[Nle]ARR-aldehyde): the 50% inhibitory concentration (IC50) in assay [1] amounted to 3.8 µM.

In turn, `CCCC[C@H](NC(=O)c1ccccc1)C(=O)N[C@@H](Cc1ccccc1)C(=O)N[C@@H](CCCNC(=N)N)C(=O)N[C@H](C=O)CCCNC(=N)N` (Bz-[Nle]FRR-aldehyde) registered an IC50 in assay [1] of 4.2 µM.

In the case of `CCCC[C@H](NC(=O)c1ccccc1)C(=O)N[C@@H](CCCCN)C(=O)N[C@@H](Cc1ccccc1)C(=O)N[C@H](C=O)CCCNC(=N)N` (Bz-[Nle]KFR-aldehyde), the half-inhibitory concentration (IC50) in assay [1] turned out to be 108 µM.

Regarding `CCCC[C@H](NC(=O)c1ccccc1)C(=O)N[C@@H](CCCCN)C(=O)N[C@@H](CCCCN)C(=O)N[C@H](C=O)CCCNC(=N)N` (Bz-[Nle]KKR-aldehyde), the IC50 in assay [1] was found to be 1.9 µM.

For the compound `CCCC[C@H](NC(=O)c1ccccc1)C(=O)N[C@@H](CCCCN)C(=O)N[C@@H](CCC(N)=O)C(=O)N[C@H](C=O)CCCNC(=N)N` (Bz-[Nle]KQR-aldehyde), the IC50 in assay [1] turned out to be 1.7 µM.

For `CCCC[C@H](NC(=O)c1ccccc1)C(=O)N[C@@H](CCCCN)C(=O)N[C@@H](CCCNC(=N)N)C(=O)N[C@H](C=O)Cc1ccccc1` (Bz-[Nle]KRF-aldehyde), the concentration for half-maximal inhibition (IC50) in assay [1] worked out at 110 µM.

For `CCCC[C@H](NC(=O)c1ccccc1)C(=O)N[C@@H](CCCCN)C(=O)N[C@@H](CCCNC(=N)N)C(=O)N[C@H](C=O)Cc1cnc[nH]1` (Bz-[Nle]KRH-aldehyde), the IC50 in assay [1] worked out at 43.1 µM.

Turning to `CCCC[C@H](NC(=O)c1ccccc1)C(=O)N[C@@H](CCCCN)C(=O)N[C@@H](CCCNC(=N)N)C(=O)N[C@H](C=O)CCCCN` (Bz-[Nle]KRK-aldehyde), in assay [1], the concentration for half-maximal inhibition (IC50) is 57.7 µM.

As to `CCCC[C@H](NC(=O)c1ccccc1)C(=O)N[C@@H](CCCCN)C(=O)N[C@@H](CCCNC(=N)N)C(=O)N[C@H](C=O)CCCNC(=N)N` (Bz-[Nle]KRR-aldehyde), the IC50 in assay [1] turned out to be 4.1 µM.

Regarding `CCCC[C@H](NC(=O)c1ccccc1)C(=O)N[C@@H](CCCCN)C(=O)N[C@@H](CCCNC(=N)N)C(=O)N[C@H](C=O)Cc1ccc(NC(=N)N)cc1` (Bz-[Nle]KR[Phe(4-guanidino)]-aldehyde), the 50% inhibitory concentration (IC50) in assay [1] was determined as 11.8 µM.

For the compound `CCCC[C@H](NC(=O)c1ccccc1)C(=O)N[C@@H](CCCCN)C(=O)N[C@@H](CCCNC(=N)N)C(=O)N[C@H](C=O)c1ccccc1` (Bz-[Nle]KR[Phg]-aldehyde), it took 90.9 µM to reach half-maximal inhibition in assay [1] (IC50).

For `CC(=O)N[C@H](C(=O)N[C@H](C(=O)N[C@@H](CC(C)C)[C@@H](O)CC(=O)N[C@@H](C)C(=O)N[C@@H](CC(C)C)C(O)CC(=O)O)C(C)C)C(C)C` (single isomer, unassigned) [ACETYLPEPSTATIN], on Protease, affinity was put at a Ki of 1100 nM.
